Results published in patent US10800789B2, “Antiviral compounds” (Gilead Pharmasset LLC, priority 2012, dated 2020).
Like-named read-outs stand apart in the source and are kept apart here.

Assays:
[1] = test system: stable HCV 2a JFH-1 Rluc replicon cells (L31 present in NS5A); assay: Renilla luciferase HCV replicon reporter assay, genotype 2a JFH-1; assay type: cell-based; settings: Hepatitis C virus
In short: (§1)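 Antiviral EC50 was determined in HCV replicon cells (stable RLuc lines for 1a H77, 1b Con1, 2a JFH-1 with NS5A L31; J6 NS5A chimera with M31) treated 72 h with compound. Renilla luciferase was then quantified.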

[2] = test system: NS5A chimeric genotype 2a JFH-1 replicon with genotype 2a J6 strain NS5A gene (M31 present); assay: Replicon assay, genotype 2a J6 NS5A chimera; assay type: cell-based, HCV; settings: Hepatitis C virus
In short: (§2)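 Cells carrying the stable or transiently transfected (Huh-Lunet) dicistronic RLuc replicons received 3-fold serial compound dilutions from 10 mM DMSO stocks. After 72 h, cells were lysed and Renilla luciferase read. DMSO served as the no-inhibition control and ITMN-191 above 100×EC50 as the positive control; EC50 by non-linear regression.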

[3] = test system: NS5A chimeric genotype 1b Con1 replicon with genotype 4a ED43 strain NS5A gene; assay: Replicon assay, genotype 4a NS5A chimera; assay type: cell-based, HCV; settings: Hepatitis C virus
[4] = test system: stable HCV 1b RLuc replicon cells (dicistronic genotype 1b Con1 replicon); assay: Renilla luciferase HCV replicon reporter assay, genotype 1b; assay type: cell-based; settings: Hepatitis C virus, 72 h, stable 1b Con1 RLuc replicon cells, 72 hours; read-out: 1b
In short: as §1

[5] = test system: stable HCV 1a RLuc replicon cells (dicistronic genotype 1a H77 replicon); assay: Renilla luciferase HCV replicon reporter assay, genotype 1a; assay type: cell-based; settings: Hepatitis C virus, 72 h, stable 1a H77 RLuc replicon cells
In short: as §1

[6] = test system: NS5A chimeric genotype 2a JFH-1 replicon with genotype 2b MD2b-1 strain NS5A gene (M31 present); assay: Replicon assay, genotype 2b NS5A chimera; assay type: cell-based, HCV; settings: Hepatitis C virus
In short: as §2

[7] = test system: NS5A chimeric genotype 1b Con1 replicon with genotype 3a S52 strain NS5A gene; assay: Replicon assay, genotype 3a NS5A chimera; assay type: cell-based, HCV; settings: Hepatitis C virus
[8] = read-out: 2a JFH (nM), genotype 2a JFH-1 replicon (L31 in NS5A), stable cells
[9] = read-out: 2a JFH, stable 2a JFH-1 Rluc replicon cells, L31 in NS5A, activity range
[10] = read-out: 2a J6 (t) (nM), genotype 2a J6 NS5A chimeric replicon (M31), transiently transfected (t) into Huh-Lunet cells
[11] = read-out: 2a J6 (t), transiently transfected (t) into Huh-Lunet cells, activity range
[12] = read-out: 4a (s) (nM), genotype 4a NS5A chimeric replicon, stable replicon cells (s)
[13] = read-out: 4a (s), (s), activity range
[14] = 2BS, read-out: 2b (s), stably replicating replicon cells (s), activity range
[15] = read-out: 2b (s) (nM), genotype 2b MD2b-1 NS5A chimeric replicon (M31), stably replicating replicon cells (s)
[16] = read-out: 3a (s) (nM), genotype 3a NS5A chimeric replicon, stable replicon cells (s)
[17] = read-out: 3a (s), (s), activity range

| SMILES | EC50 [1, 8] | EC50 [1, 9] | EC50 [2, 10] | EC50 [2, 11] | EC50 [3, 12] | EC50 [3, 13] | EC50 [4] | EC50 [5] | EC50 ([5]; activity range) | EC50 [6, 14] | EC50 [6, 15] | EC50 [7, 16] | EC50 [7, 17] | EC50 ([2]; read-out: 2a J6 (s) (nM), genotype 2a J6 NS5A chimeric replicon (M31), stably replicating replicon cells (s)) | EC50 ([2]; read-out: 2a J6 (s), stably replicating replicon cells (s), activity range) |
| --- | --- | --- | --- | --- | --- | --- | --- | --- | --- | --- | --- | --- | --- | --- | --- |
| COC[C@H]1C[C@@H](c2ncc(-c3ccc4c(c3)COc3cc5c(ccc6nc([C@@H]7C[C@H](COC)CN7C(=O)[C@@H](NC(=O)OC)[C@@H](C)OC)[nH]c65)cc3-4)[nH]2)N(C(=O)[C@@H](NC(=O)OC)[C@@H](C)OC)C1 [EX, Methyl {(2S,3R)-3-methoxy-1-[(2S,4S)-2-(9-{2-[(2S,4S)-1-[N-(methoxycarbonyl)-O-methyl-L-threonyl]-4-(methoxymethyl)pyrrolidin-2-yl]-1H-imidazol-5-yl}-1,11-dihydroisochromeno[4′,3′:6,7]naphtho[1,2-d]imidazol-2-yl)-4-(methoxymethyl)pyrrolidin-1-yl]-1-oxobutan-2-yl}carbamate] | 0.027 nM | < 0.1 nM | 0.052 nM | < 0.1 nM | 0.072 nM | < 0.1 nM | 197 pM | 79 pM | < 100 pM | 0.1 to 0.999 nM | 0.393 nM | 1.69 nM | 1 to 44 nM | – | – |
| COC(=O)N[C@H](C(=O)N1[C@@H](C)CC[C@H]1c1ncc(-c2ccc3c(c2)COc2cc4c(ccc5nc([C@@H]6CC[C@H](C)N6C(=O)[C@@H](NC(=O)OC(C)(C)C)C(C)(C)O)[nH]c54)cc2-3)[nH]1)C(C)C [HV] | 1.87 nM | 1 to 44 nM | ≥ 44.4 nM | > 44 nM | 1.27 nM | 1 to 44 nM | 91 pM | 3650 pM | 1000 to 44000 pM | > 44 nM | ≥ 44.4 nM | 12.6 nM | 1 to 44 nM | – | – |
| COC(=O)N[C@H](C(=O)N1[C@@H](C)CC[C@H]1c1nc2ccc3cc4c(cc3c2[nH]1)OCc1cc(-c2cnc([C@@H]3C[C@H](F)CN3C(=O)[C@@H](NC(=O)OC)[C@@H](C)OC)[nH]2)ccc1-4)C(C)C [HU] | 0.026 nM | < 0.1 nM | 3.17 nM | 1 to 44 nM | 0.012 nM | < 0.1 nM | 55 pM | 16 pM | < 100 pM | 1 to 44 nM | 3.56 nM | 0.083 nM | < 0.1 nM | – | – |
| CCC[C@H]1CC[C@@H](c2nc3ccc4cc5c(cc4c3[nH]2)OCc2cc(-c3cnc([C@@H]4CC[C@H](C)N4C(=O)[C@@H](NC(=O)OC)C(C)C)[nH]3)ccc2-5)N1C(=O)[C@@H](NC(=O)OC)C1CCOCC1 [IV] | 0.055 nM | < 0.1 nM | – | – | 0.018 nM | < 0.1 nM | 53 pM | 45 pM | < 100 pM | 0.1 to 0.999 nM | 0.426 nM | 0.236 nM | 0.1 to 0.999 nM | 0.068 nM | < 0.1 nM |
| CC[C@H]1CC[C@@H](c2ncc(-c3ccc4c(c3)COc3cc5c(ccc6nc([C@@H]7C[C@H](C)CN7C(=O)[C@@H](NC(=O)OC)C(C)C)[nH]c65)cc3-4)[nH]2)N1C(=O)[C@@H](NC(=O)OC)C1CCOCC1 [IC] | 0.02 nM | < 0.1 nM | 0.052 nM | < 0.1 nM | 0.012 nM | < 0.1 nM | 27 pM | 24 pM | < 100 pM | 0.1 to 0.999 nM | 0.122 nM | 0.116 nM | 0.1 to 0.999 nM | – | – |
| CC[C@H](C)[C@H](NC(=O)OC)C(=O)N1C[C@@H](C)C[C@H]1c1nc2ccc3cc4c(cc3c2[nH]1)OCc1cc(-c2cnc([C@@H]3CC[C@H](C)N3C(=O)[C@@H](NC(=O)OC)C(C)C)[nH]2)ccc1-4 [GR] | 0.025 nM | < 0.1 nM | 0.198 nM | 0.1 to 0.999 nM | 0.025 nM | < 0.1 nM | 22 pM | 16 pM | < 100 pM | 0.1 to 0.999 nM | 0.794 nM | 0.159 nM | 0.1 to 0.999 nM | – | – |
| COC(=O)N[C@H](C(=O)N1C[C@@H](C)C[C@H]1c1ncc(-c2ccc3c(c2)COc2cc4c(ccc5nc([C@@H]6CC[C@H](C)N6C(=O)[C@@H](NC(=O)OC)C6CCOCC6)[nH]c54)cc2-3)[nH]1)C(C)C [FN, Methyl [(2S)-1-{(2S,4S)-2-[5-(2-{(2S,5S)-1-[(2S)-2-[(methoxycarbonyl)amino]-2-(tetrahydro-2H-pyran-4-yl)acetyl]-5-methylpyrrolidin-2-yl}-1,11-dihydroisochromeno[4′,3′:6,7]naphtho[1,2-d]imidazol-9-yl)-1H-imidazol-2-yl]-4-methylpyrrolidin-1-yl}-3-methyl-1-oxobutan-2-yl]carbamate] | 0.028 nM | < 0.1 nM | 0.068 nM | < 0.1 nM | 0.02 nM | < 0.1 nM | 53 pM | 35 pM | < 100 pM | 0.1 to 0.999 nM | 0.142 nM | 0.084 nM | < 0.1 nM | – | – |
| COC(=O)N[C@H](C(=O)N1[C@@H](C)CC[C@H]1c1ncc(-c2ccc3c(c2)COc2cc4c(ccc5nc([C@@H]6CC[C@H](C)N6C(=O)[C@@H](NC(=O)OC)C6CC6)[nH]c54)cc2-3)[nH]1)C(C)C [HD] | 0.017 nM | < 0.1 nM | 1.39 nM | 1 to 44 nM | 0.016 nM | < 0.1 nM | 17 pM | 15 pM | < 100 pM | 1 to 44 nM | 1.9 nM | 0.102 nM | 0.1 to 0.999 nM | – | – |
| COC(=O)N[C@H](C(=O)N1[C@@H](C)CC[C@H]1c1nc2ccc3cc4c(cc3c2[nH]1)OCc1cc(-c2cnc([C@@H]3CC[C@H](C)N3C(=O)[C@@H](NC(=O)OC)[C@@H](C)O)[nH]2)ccc1-4)C(C)C [GY] | 0.013 nM | < 0.1 nM | 0.06 nM | < 0.1 nM | 0.015 nM | < 0.1 nM | 32 pM | 23 pM | < 100 pM | 0.1 to 0.999 nM | 0.311 nM | 0.048 nM | < 0.1 nM | – | – |
| COC(=O)N[C@H](C(=O)N1C[C@@H](F)C[C@H]1c1ncc(-c2ccc3c(c2)COc2cc4c(ccc5nc([C@@H]6CC[C@H](C)N6C(=O)[C@@H](NC(=O)OC)C(C)C)[nH]c54)cc2-3)[nH]1)C(C)C [HS] | 0.022 nM | < 0.1 nM | 4.14 nM | 1 to 44 nM | 0.008 nM | < 0.1 nM | 23 pM | 11 pM | < 100 pM | 1 to 44 nM | 3.37 nM | 0.082 nM | < 0.1 nM | – | – |
